IC50 data for 31 compounds are collected here from ChEMBL document CHEMBL3727348, “3-(aryl or heteroaryl) methyleneindolin-2-one derivatives as inhibitors of cancer stem cell pathway kinases for the treatment of cancer” (2014).

Holding throughout (assay type): functional, cell-based
Experiment [1] relates to FaDu. Nature of the experiment: Cytotoxic activity against human FADU bulk cells incubated for 72 hrs by Cell-titer-Glo luminescence assay.
Experiment [2] deals with A549. In words: Cytotoxic activity against human A549 bulk cells incubated for 72 hrs by Cell-titer-Glo luminescence assay. The settings on record: A549, 72 h.
The test system of experiment [3] is ACHN. Nature of the experiment: Cytotoxic activity against human ACHN bulk cells incubated for 72 hrs by Cell-titer-Glo luminescence assay.
Experiment [4] deals with A549. In words: Cytotoxic activity against human A549 cancer stem cells incubated for 72 hrs by Cell-titer-Glo luminescence assay. As to conditions: A549, 72 h.
For experiment [5], the system named is ACHN. In words: Cytotoxic activity against human ACHN cancer stem cells incubated for 72 hrs by Cell-titer-Glo luminescence assay.
In experiment [6] the test system is FaDu. In words: Cytotoxic activity against human FADU cancer stem cells incubated for 72 hrs by Cell-titer-Glo luminescence assay.

Usually IC50 stands for the concentration at which inhibition is half-maximal. Low values mean inhibition by little substance, high ones a need for much substance. Turning to `O=C1Nc2ccc(-c3csc(-c4ccncc4)n3)cc2/C1=C/c1ncc[nH]1`, the IC50 in experiment [1] was 3.42 µM; in experiment [2], 14.8 µM; in experiment [3], 0.29 µM; in experiment [4] it was 2.6 µM; in experiment [5], 9210 nM.
Turning to `CCN(CC)CCNC(=O)c1c(C)[nH]c(/C=C2\C(=O)Nc3ccc(-c4cccc(OC)n4)cc32)c1C`, the IC50 in experiment [1] turned out to be 1.76 µM; in experiment [2] it was 2.79 µM; in experiment [3] it was 1.96 µM; in experiment [6], 0.19 µM; in experiment [4], 2.24 µM; in experiment [5], 240 nM.
Take `O=C1Nc2ccc(-c3csc(-c4ccncc4)n3)cc2/C1=C/c1cnc[nH]1`: the IC50 in experiment [1] came to 1.66 µM; in experiment [2], 9.19 µM; in experiment [3] it was 3.61 µM; in experiment [6], 22.1 µM; in experiment [4], 7.18 µM; in experiment [5], 28900 nM.
With `CCN(CC)CCNC(=O)c1c(C)[nH]c(/C=C2\C(=O)Nc3ccc(-c4cnc5cccnn45)cc32)c1C`, the 50% inhibitory concentration (IC50) in experiment [1] is 1.74 µM; in experiment [2] it was 3.66 µM; in experiment [3] it was 3.64 µM; in experiment [6] it was 0.06 µM; in experiment [4], 6.64 µM; in experiment [5] it was 2730 nM.
For `CCN(CC)CCNC(=O)c1c(C)[nH]c(/C=C2\C(=O)Nc3ccc(-c4ncccn4)cc32)c1C`, the IC50 in experiment [1] came to 6.02 µM; in experiment [2], 15.4 µM; in experiment [3] it was 3.5 µM; in experiment [6] it was 0.09 µM; in experiment [4] it was 18 µM; in experiment [5] it was 1150 nM.
Turning to `CCN(CC)CCNC(=O)c1c(C)[nH]c(/C=C2\C(=O)Nc3ccc(-c4ccc(C#N)c(F)c4)cc32)c1C`, the IC50 is 14 µM in experiment [1]; 14.5 µM in experiment [2]; 13.3 µM in experiment [3]; 3.48 µM in experiment [6]; 12 µM in experiment [4]; 1710 nM in experiment [5].
In the case of `CCN(CC)CCNC(=O)c1c(C)[nH]c(/C=C2\C(=O)Nc3ccc(-c4cscc4C)cc32)c1C`, the IC50 in experiment [1] amounted to 3.74 µM; in experiment [2], 2.01 µM; in experiment [3], 2.68 µM; in experiment [6] it was 9.1 µM; in experiment [4], 3.94 µM; in experiment [5], 480 nM.
For `CCN(CC)CCNC(=O)c1c(C)[nH]c(/C=C2\C(=O)Nc3ccc(-c4ccc(OC)cc4C)cc32)c1C`, the IC50 in experiment [1] came to 2.31 µM; in experiment [2], 1.74 µM; in experiment [3], 2.26 µM; in experiment [6] it was 1.4 µM; in experiment [4] it was 4.61 µM; in experiment [5], 1420 nM.
`O=C1Nc2ccc(-c3csc(C4CCNCC4)n3)cc2/C1=C/c1cc2c([nH]1)CCCC2`: the IC50 in experiment [1] amounted to 21.1 µM; in experiment [2], 9.39 µM; in experiment [3], 18.8 µM; in experiment [6], 12 µM; in experiment [4], 22.1 µM; in experiment [5], 2680 nM.
Consider `CCN(CC)CCNC(=O)c1c(C)[nH]c(/C=C2\C(=O)Nc3ccc(-c4cnsc4)cc32)c1C`, for which the IC50 came out at 3.17 µM in experiment [1]; 3.79 µM in experiment [2]; 4.58 µM in experiment [3]; 3.42 µM in experiment [6]; 6.66 µM in experiment [4]; 640 nM in experiment [5].
Turning to `CCN(CC)CCNC(=O)c1c(C)[nH]c(/C=C2\C(=O)Nc3cc(-c4ccc(O)cc4C)ccc32)c1C`, the concentration for half-maximal inhibition (IC50) in experiment [1] stood at 2.14 µM; in experiment [2], 2.76 µM; in experiment [3], 2.53 µM; in experiment [6] it was 1.54 µM; in experiment [4] it was 7.55 µM; in experiment [5], 2170 nM.
On to `CCN(CC)CCNC(=O)c1c(C)[nH]c(/C=C2\C(=O)Nc3ccc(-c4csc(-n5cccn5)n4)cc32)c1C`, for which the IC50 in experiment [1] worked out at 4.68 µM; in experiment [2], 3.71 µM; in experiment [3], 7.88 µM; in experiment [6], 5.11 µM; in experiment [4], 6.64 µM; in experiment [5], 620 nM.
Regarding `CCN(CC)CCNC(=O)c1c(C)[nH]c(/C=C2\C(=O)Nc3ccc(-c4ccccn4)cc32)c1C`, the IC50 in experiment [1] worked out at 2.56 µM; in experiment [2], 7.23 µM; in experiment [3] it was 2.26 µM; in experiment [6] it was 0.18 µM; in experiment [4], 5.45 µM; in experiment [5] it was 1060 nM.
For `Cc1cc(C)c(/C=C2\C(=O)Nc3ccc(-c4n[nH]c5ccccc45)cc32)[nH]1`, the IC50 was 4.43 µM in experiment [1]; 6.45 µM in experiment [2]; 8.73 µM in experiment [3]; 5.33 µM in experiment [6]; 7.28 µM in experiment [4]; 3100 nM in experiment [5].
In the case of `CCN(CC)CCNC(=O)c1c(C)[nH]c(/C=C2\C(=O)Nc3cc(-c4ccc(-c5ccccc5)nc4)ccc32)c1C`, the IC50 in experiment [2] was found to be 14.8 µM; in experiment [6], 1.12 µM; in experiment [4], 3.59 µM; in experiment [5], 210 nM.
Take `CCN(CC)CCNC(=O)c1c(C)[nH]c(/C=C2\C(=O)Nc3ccc(-c4ccc(OC)cn4)cc32)c1C`: the IC50 in experiment [1] is 7.01 µM; in experiment [2], 10.8 µM; in experiment [3], 6.44 µM; in experiment [6], 0.16 µM; in experiment [4], 8.89 µM; in experiment [5] it was 1080 nM.
Turning to `CCN(CC)CCNC(=O)c1c(C)[nH]c(/C=C2\C(=O)Nc3cc(-c4ccc5ccccc5n4)ccc32)c1C`, the IC50 amounted to 16.6 µM in experiment [1]; 16.4 µM in experiment [2]; 5.15 µM in experiment [6]; 6.59 µM in experiment [4]; 1360 nM in experiment [5].
Regarding `CCN(CC)CCNC(=O)CCc1c(C)[nH]c(/C=C2\C(=O)Nc3ccc(-c4csc(-c5ccccc5)n4)cc32)c1C`, the IC50 in experiment [1] was 3.85 µM; in experiment [2], 1.11 µM; in experiment [3] it was 2.48 µM; in experiment [6] it was 3.53 µM; in experiment [4] it was 8.74 µM; in experiment [5] it was 4230 nM.
Regarding `CCN(CC)CCNC(=O)c1c(C)[nH]c(/C=C2\C(=O)Nc3ccc(-c4nccc5ccccc45)cc32)c1C`, the concentration for half-maximal inhibition (IC50) in experiment [1] came to 2.13 µM; in experiment [2], 3.18 µM; in experiment [3], 5.05 µM; in experiment [6], 0.03 µM; in experiment [4], 13.9 µM; in experiment [5], 710 nM.
In the case of `CCN(CC)CCNC(=O)c1c(C)[nH]c(/C=C2\C(=O)Nc3ccc(-c4cc(-c5ccccc5)ccn4)cc32)c1C`, the IC50 in experiment [1] came out at 2.58 µM; in experiment [2] it was 1.5 µM; in experiment [3], 2.41 µM; in experiment [6] it was 9.67 µM; in experiment [4], 2 µM; in experiment [5], 900 nM.
On to `CCN(CC)CCNC(=O)c1c(C)[nH]c(/C=C2\C(=O)Nc3cc(-c4cnc5ccccc5c4)ccc32)c1C`, for which the IC50 in experiment [1] was 12.9 µM; in experiment [2], 15.8 µM; in experiment [6], 2.83 µM; in experiment [4] it was 11.6 µM; in experiment [5], 1070 nM.
Take `CCN(CC)CCNC(=O)c1c(C)[nH]c(/C=C2\C(=O)Nc3ccc(-c4cncnc4)cc32)c1C`: the IC50 turned out to be 4.55 µM in experiment [1]; 7.33 µM in experiment [2]; 3.66 µM in experiment [3]; 10.1 µM in experiment [6]; 18 µM in experiment [4]; 550 nM in experiment [5].
Regarding `CCN(CC)CCNC(=O)c1c(C)[nH]c(/C=C2\C(=O)Nc3ccc(-c4ccc(C=O)cc4)cc32)c1C`, the IC50 turned out to be 12.1 µM in experiment [1]; 10.6 µM in experiment [2]; 2.81 µM in experiment [3]; 7.51 µM in experiment [6]; 5.84 µM in experiment [4]; 4340 nM in experiment [5].
On to `CCN(CC)CCNC(=O)c1c(C)[nH]c(/C=C2\C(=O)Nc3cc(-c4cccc5ncccc45)ccc32)c1C`, for which the IC50 in experiment [1] amounted to 4.83 µM; in experiment [2] it was 2.88 µM; in experiment [3], 2.66 µM; in experiment [6] it was 2.64 µM; in experiment [4], 8.61 µM; in experiment [5], 420 nM.
`CCN(CC)CCNC(=O)c1c(C)[nH]c(/C=C2\C(=O)Nc3ccc(-c4cnc5cn[nH]c5c4)cc32)c1C`: the IC50 in experiment [1] came out at 1.49 µM; in experiment [2] it was 3.24 µM; in experiment [3], 2.74 µM; in experiment [6], 0.16 µM; in experiment [4], 26.4 µM; in experiment [5] it was 10800 nM.
Regarding `Cc1[nH]c(/C=C2\C(=O)Nc3ccc(-c4csc(-c5ccccc5)n4)cc32)c(C)c1S(=O)(=O)N1CCOCC1`, the IC50 in experiment [1] was found to be 11.4 µM; in experiment [2], 7.28 µM; in experiment [3], 10.7 µM; in experiment [6], 0.21 µM; in experiment [4], 3.73 µM; in experiment [5], 560 nM.
For `CCN(CC)CCNC(=O)c1c(C)[nH]c(/C=C2\C(=O)Nc3ccc(-c4ccc5c(c4)CC(=O)N5)cc32)c1C`, the IC50 in experiment [1] was found to be 25.4 µM; in experiment [2] it was 19.7 µM; in experiment [3], 18.9 µM; in experiment [6], 15.5 µM; in experiment [4] it was 29.2 µM; in experiment [5] it was 20800 nM.
Regarding `O=C1Nc2ccc(-c3csc(C4CCNCC4)n3)cc2/C1=C/c1cc2ccccc2[nH]1`, the IC50 worked out at 5.16 µM in experiment [1]; 5.55 µM in experiment [2]; 4.12 µM in experiment [3]; 0.76 µM in experiment [6]; 2.04 µM in experiment [4]; 100 nM in experiment [5].
For the compound `CCN(CC)CCNC(=O)c1c(C)[nH]c(/C=C2\C(=O)Nc3ccc(-c4csc(C(=O)O)c4)cc32)c1C`, the IC50 is 7.79 µM in experiment [2]; 7.74 µM in experiment [3]; 14.1 µM in experiment [6]; 14.1 µM in experiment [4]; 1280 nM in experiment [5].
Regarding `CCN(CC)CCNC(=O)c1c(C)[nH]c(/C=C2\C(=O)Nc3ccc(-c4ccc5ccccc5n4)cc32)c1C`, the half-inhibitory concentration (IC50) in experiment [1] came to 0.92 µM; in experiment [2] it was 1.8 µM; in experiment [3], 2.74 µM; in experiment [4] it was 1.51 µM; in experiment [5] it was 330 nM.
For `Cc1cc(C)c(/C=C2\C(=O)Nc3cc(-c4cnc5ccccc5n4)ccc32)[nH]1`, the IC50 was 18.2 µM in experiment [2], 8.8 µM in experiment [6], 5.83 µM in experiment [4] and 2540 nM in experiment [5].
